Read-outs that look alike come from different tables or passages of the source. One block for each compound: values may come before it.
Legend:
[1] = tested on: endothelial cells and smooth muscle cells; test: Hypertension model gene array analysis; assay type: cell-based; details: healthy and atheroprone conditions
Experimental: ANG2 at a concentration of 10 nM (10.46 ng/ml) or a DMSO vehicle control (VEH) was added to the upper volume and RNA was collected for gene array analysis.
Aldosterone at a concentration of 1 mM or a vehicle control (VEH) was added to the upper volume and RNA was collected for gene array analysis

primary rat hepatocytes [2] = test: Gluconeogenesis assay (AMPLEX RED glucose); assay type: cell-based; details: for Effect (% Change) on glucose levels: insulin 2 nM or glucagon 100 nM; for glucose levels: decreased by (insulin) / increased by (glucagon) / glucose levels: decreased by (insulin) / increased by further (glucagon): insulin 2 nM, glucagon 100 nM; for glucose levels: decreased by (insulin) / increased by further (glucagon): substrate glycerol
endothelial cells [3] = test: TNFα in hemodynamic environment: gene expression; assay type: cell-based; details: 0.1-1 ng/ml TNFα; atheroprone hemodynamic forces; not seen at same levels in static cultures
Experimental: Following 24 hours of shear stress preconditioning with atheroprotective or atheroprone hemodynamic forces, TNFα was added to upper volume (containing the endothelial cells) at a concentration of 0.05-1 ng/ml (see FIG. 5). This concentration of TNFα is similar to plasma concentrations of TNFα observed in patients with cardiovascular disease. Shear stress application was continued for an additional 24 hours in the presence of TNFα.

[4] = tested on: Endothelial/smooth muscle cell co-cultures; test: Coculture thrombosis assay with shear stress, Protocol A (fibrin deposition); assay type: cell-based, Human; details: atheroprone hemodynamics vs static cultures
Experimental: (§1) Human endothelial cells were co-cultured with or without smooth muscle cells in the presence or absence of human-derived, region-specific hemodynamics. Endothelial cells were exposed to TNFα at various concentrations and incubated in human, platelet-free plasma supplemented by ALEXA FLUOR 488 (A488, a fluorescent dye)-labeled fibrinogen. Conversion of A488-fibrinogen to A488-fibrin and deposition on the endothelium was quantified by confocal microscopy.
Following 24 hours of shear stress application (atheroprone or atheroprotective), the media was supplemented with TNFα at a concentration of 0.05 ng/mL or 0.10 ng/mL and shear stress was continued for an additional 24 hours, as shown in FIG. 3A. Media was then removed from both the upper and lower chambers, and both the endothelial cells and smooth muscle cells are washed twice with PBS. Endothelial cells were then incubated for 15 minutes at 37° C. with PFP supplemented with 37.5 μg/mL ALEXA-488 human fibrinogen, 20 μg/mL corn trypsin inhibitor, and 10 mM calcium, and fixed and imaged as described above for monocultures.

[5] = tested on: endothelial and smooth muscle cells; test: Expression of genes relevant to thrombosis; assay type: cell-based, Human; details: TNFα stimulation; both endothelial and smooth muscle cells
Experimental: as §1
FIG. 2B depicts a heat map of relative gene expression in endothelial and smooth muscle cells (grown under atheroprone or atheroprotective conditions; see FIG. 2A) of several genes relevant to thrombosis. The relative changes in gene expression of Tissue Factor (F3) and Thrombomodulin (THBD) are presented below the heat map. Atheroprone hemodynamics up-regulate Tissue Factor (F3) compared to atheroprotective shear stress. […] In addition, TNFα stimulation reduces Tissue Factor Pathway Inhibitor (TFPI) in both endothelial and smooth muscle cells.

cytochrome p450 1A/1B = test: Cytochrome p450 activity assay (P450-GLO), 1A/1B
[6] = tested on: endothelial cell/smooth muscle cell co-cultures; test: HDL in hemodynamic environment; assay type: cell-based; details: HDL at 45 μg/ml or 90 μg/ml; hemodynamic shear stress
Experimental: An additional component of plasma cholesterol distinct from nLDL or oxLDL is HDL. […] HDL was then added to the upper volume at a concentration of 45-1,000 μg/ml. This broad range reflects the broad range of HDL concentrations that can exist within human patients. HDL concentrations in individuals at risk for vascular disease are generally less than about 300 μg/ml, while HDL concentrations in healthy individuals range from greater than about 300 μg/ml up to about 2,000 μg/ml in healthy exercising patients.
In additional experiments, endothelial cell/smooth muscle cell co-cultures plated as described above were preconditioned for 16 hours with hemodynamic shear stress. From hours 16-24 the cells were additionally primed with 0.05 ng/ml TNFα and 50 μg/ml of oxLDL (compared to a vehicle control containing 50 μg/ml nLDL) in the upper volume. At 24 hours, 45 μg/ml or 90 μg/ml HDL was added to the media in the upper volume and hemodynamic shear stress was continued for the next 24 hours (hours 24-48).

[7] = tested on: primary human hepatocytes; details: 1 μM chlorpromazine; controlled hemodynamic conditions relative to static controls
primary rat hepatocytes [8] = test: miRNA122 assay; assay type: cell-based; details: static conditions; chlorpromazine 1 μM, 4 hours
Experimental: The hepatocytes were then washed with PBS and incubated with serum free hepatocyte medium with or without known toxic drug chlorpromazine (CPZ) at two different concentrations (1 μM and 10 μM) for 4 hours. Supernatants from the cells were collected and microRNA extraction was performed using the MIRNEASY serum/plasma kit (a kit for extracting microRNA, Qiagen). The cDNA was prepared by using the MISCRIPTII RT kit (a kit for preparing cDNA, Qiagen) and samples quantified using the MISCRIPT SYBR GREEN PCR kit (a kit for quantifying cDNA, Qiagen), following the manufacturer's instructions.
The hepatocytes were washed with PBS and immediately incubated with either vehicle (distilled water) or chlorpromazine (1 μM) for 4 hours. The supernatant was collected and miRNA 122 levels were measured as described above.

[9] = tested on: primary human hepatocytes; details: 72 h
[10] = tested on: endothelial cells and smooth muscle cells; test: oxLDL in hemodynamic environment: gene array, gene, protein and cytokine expression; assay type: cell-based; details: for number of genes regulated as compared to cells treated with nLDL: atheroprone, 50 μg/ml oxLDL vs 50 μg/ml nLDL
Experimental: Following 16-24 hours of shear stress preconditioning with atheroprotective or atheroprone hemodynamic forces, oxLDL was added to upper volume (containing the endothelial cells) at a concentration of 10-50 μg/ml (FIG. 5). In devices not receiving oxLDL, nLDL was added to the upper volume at the same concentration and used as a vehicle control. This concentration of oxLDL is similar to plasma concentrations of oxLDL observed in patients with cardiovascular disease. Shear stress application was continued for an additional 24 hours in the presence of oxLDL.
(§2) Five different donor pairs were used to analyze the oxLDL (50 μg/ml) response compared to nLDL (50 μg/ml) within the atheroprone hemodynamic environment in endothelial cells and smooth muscle cells. […] Significant genes were considered using an FDR of 0.01. Gene expression results are reported as the relative expression of the gene as compared to the expression of β-2 microglobulin (B2M). Protein expression results are reported as the relative expression of the protein as compared to the expression of actin. Activity of NFκB was assessed using an adenovirus NFκB-luciferase (Ad-NFκB-luc) reporter infected in ECs and SMCs.

NFκB = test: NFκB-luciferase reporter (Ad-NFκB-luc); assay type: cell-based; details: smooth muscle cells; oxLDL added to upper volume only
Experimental: as §2

endothelial cells [11] = test: oxLDL and TNFα in hemodynamic environment: RT-PCR gene expression; assay type: cell-based; details: atheroprone shear stress, 50 μg/ml oxLDL without or with 0.05 ng/ml TNFα
Experimental: To emulate more inflammatory stages of atherosclerosis, it is desirable to combine multiple circulating factors to better emulate the complexity found within human blood vessels. […] The media in the upper volume was then exchanged for media containing 0.05 ng/ml TNFα and 50 μg/ml of oxLDL. Media containing only 50 μg/ml of nLDL was used as a control.
Following 24 hours of shear stress preconditioning with atheroprotective or atheroprone hemodynamic forces, 50 μg/ml of oxLDL and 0.05 ng/ml of TNFα were added to upper volume (containing the endothelial cells). This concentration of TNFα is similar to plasma concentrations of TNFα observed in patients with cardiovascular disease. In devices not receiving oxLDL, nLDL was added to the upper volume at the same concentration and used as a vehicle control. Shear stress application was continued for an additional 24 hours in the presence of TNF-α and oxLDL (see FIG. 5). Gene expression analysis was performed using RT-PCR.

rat hepatocytes = test: RT-PCR of oxidative stress-related and MRP genes; details: controlled hemodynamic conditions
primary rat hepatocytes [12] = test: Biliary activity stain (CDFDA), canalicular pattern; assay type: cell-based; details: controlled hemodynamic conditions, 48 hours
Text: Samples were then washed with PBS and placed on glass slide for confocal imaging.

primary rat hepatocytes [13] = test: Toxicity to hepatocytes under controlled flow during Cyp induction; details: 50 μM dexamethasone, concentration recommended for static cultures
cytochrome p450 3A = test: Cytochrome p450 activity assay (P450-GLO), 3A; assay type: in vitro ADME, rat; details: controlled hemodynamics; dexamethasone 02.5 μM, 48 hours; DMSO 11.64
[14] = No substrate, 4 hours, controlled hemodynamics
[15] = substrate Glycerol (2 mM), 4 hours
[16] = substrate Lactate/Pyruvate (20 mM/2 mM), 4 hours
[17] = substrates lactate and pyruvate
[18] = atheroprone hemodynamic environment

Compound: C[C@]12CCC(=O)C=C1CC[C@@H]1[C@@H]2[C@@H](O)C[C@]2(C=O)[C@@H](C(=O)CO)CC[C@@H]12 [aldosterone]
inflammatory genes (gene array) ([1]; Aldosterone 1 mM vs vehicle): upregulated

Compound: Angiotensin II (DRVYIHPF; Angiotensin-2; UniProt P01019 25-32, looked up) [ANG2]
inflammatory genes (gene array) ([1]; ANG2 10 nM (10.46 ng/ml) vs DMSO vehicle): upregulated

Compound: insulin
Effect (% Change) on glucose levels (primary rat hepatocytes [2]; [14]): −27%
glucose levels: decreased by (insulin) / increased by (glucagon) (primary rat hepatocytes [2]; absence of a substrate): 27%
Effect (% Change) on glucose levels (primary rat hepatocytes [2]; [15]): −38%
Effect (% Change) on glucose levels (primary rat hepatocytes [2]; [16]): −25%
glucose levels: decreased by (insulin) / increased by further (glucagon) (primary rat hepatocytes [2]): 38%
glucose levels: decreased by (insulin) / increased by (glucagon) (primary rat hepatocytes [2]; [17]): 25%

Compound: tumor necrosis factor-α [TNFα]
inflammatory response (expression of E-Selectin, ICAM, VCAM, IL8) (endothelial cells [3]): induced an inflammatory response
lower levels of TNFα to induce fibrin deposition as compared to static cultures [4]: 100- to 200 fold
Tissue Factor Pathway Inhibitor (TFPI) expression [5]: reduces

Compound: Cc1ccc2cc3c(ccc4ccccc43)c3c2c1CC3 [3-MC, 3-Methyl Cholanthrene]
induction responses seen at lower levels under controlled hemodynamics (cytochrome p450 1A/1B; controlled hemodynamics (0.1 μM) vs static (1 μM)): 10 fold
1A/1B response (cytochrome p450 activity normalized to ATP content) (cytochrome p450 1A/1B; controlled hemodynamics, 3-MC 0.1 μM, 48 hours, DMSO 4.87): 133.06

Compound: high-density lipoprotein [HDL]
atheroprotective and pro-inflammatory gene and protein activation [6]: activates many atheroprotective genes while blocking activation of pro-inflammatory genes and proteins

miRNA 122 levels in the supernatants compared to vehicle controls (primary rat hepatocytes [8]): did not cause any change
Compound: CN(C)CCCN1c2ccccc2Sc2ccc(Cl)cc21 [chlorpromazine]
upregulation of APEX nuclease gene [7]: 2.8 fold
upregulation of glutathione reductase (GSR) gene [7]: 8.3 fold
upregulation of sorbitol dehydrogenase (SORD) gene [7]: 6.9 fold
upregulation of thioredoxin reductase 1 (TXNRD1) gene [7]: 5.5 fold
toxicity ([9]; 1 μM): 30.3%
toxicity ([9]; 10 μM): 46.4%

NFκB signaling (luciferase reporter) (NFκB): elevated
Compound: oxidized low-density lipoprotein [oxLDL]
atheroprotective signaling (eNOS and KLF2) gene expression ([10]; atheroprone conditions): reduced
inflammatory genes IL8 and E-Selectin (SELE) expression ([10]; atheroprone conditions, not regulated in traditional static cultures): activate
levels of secreted cytokines (IL6, IL8, MCP-1) [10, 18]: increased
phosphorylation of atheroprotective eNOS signaling [10, 18]: reduced
number of genes regulated as compared to cells treated with nLDL ([10]; endothelial cells, 5 donors): 688 genes
number of genes regulated as compared to cells treated with nLDL ([10]; smooth muscle cells, 4 donors): 304 genes
eNOS gene expression (NOS3) (endothelial cells [11]): reduced
E-Selectin (SELE) gene expression (endothelial cells [11]; control nLDL): higher levels

oxidative stress-related genes and MRP3 and MRP4 genes (rat hepatocytes): upregulation
changes in the canalicular pattern (cholestatic changes) (primary rat hepatocytes [12]; troglitazone 4 uM): visibly dilated canalicular structures
changes in the canalicular pattern (cholestatic changes) (primary rat hepatocytes [12]; troglitazone 40 uM): much more prominent and extensive
Compound: Cc1c(C)c2c(c(C)c1O)CCC(C)(COc1ccc(CC3SC(=O)NC3=O)cc1)O2 (stereo not shown) [troglitazone]

3A response (cytochrome p450 activity normalized to ATP content) (cytochrome p450 3A): 57.53
Compound: C[C@@H]1C[C@H]2[C@@H]3CCC4=CC(=O)C=C[C@]4(C)[C@@]3(F)[C@@H](O)C[C@]2(C)[C@@]1(O)C(=O)CO [Dexamethasone, dexamethasone]
toxicity in the controlled flow system (primary rat hepatocytes [13]): toxic

Compound: glucagon
Effect (% Change) on glucose levels (primary rat hepatocytes [2]; [14]): +51%
glucose levels: decreased by (insulin) / increased by (glucagon) (primary rat hepatocytes [2]; absence of a substrate): 51%
Effect (% Change) on glucose levels (primary rat hepatocytes [2]; [15]): +15%
Effect (% Change) on glucose levels (primary rat hepatocytes [2]; [16]): +80%
glucose levels: decreased by (insulin) / increased by further (glucagon) (primary rat hepatocytes [2]): 15%
glucose levels: decreased by (insulin) / increased by (glucagon) (primary rat hepatocytes [2]; [17]): 80%

glucose produced by the hepatocytes increased by (primary rat hepatocytes [2]; substrate glycerol (2 mM) alone): 67%
Compound: OCC(O)CO [Glycerol, glycerol]
change in glucose produced with substrate alone (primary rat hepatocytes [2]; Glycerol 2 mM, no hormone, 4 hours): Glycerol (+67%)
